According to patent US7098334B2 (Industrial Research Limited, priority 2002, dated 2006):
Like-named read-outs stand apart in the source and are kept apart here.

How the values were obtained:
human MTAP = molecular target: T1, human MTAP (Homo sapiens, UniProt Q13126); experiment: Enzyme inhibition assay, MTAP (slow-onset inhibition constants); type: biochemical
T1 construct: inferred from pQE32 vector and Ni-NTA purification) (N); made in house; host or cells: E. coli
T1 sequence (Q13126 1-283): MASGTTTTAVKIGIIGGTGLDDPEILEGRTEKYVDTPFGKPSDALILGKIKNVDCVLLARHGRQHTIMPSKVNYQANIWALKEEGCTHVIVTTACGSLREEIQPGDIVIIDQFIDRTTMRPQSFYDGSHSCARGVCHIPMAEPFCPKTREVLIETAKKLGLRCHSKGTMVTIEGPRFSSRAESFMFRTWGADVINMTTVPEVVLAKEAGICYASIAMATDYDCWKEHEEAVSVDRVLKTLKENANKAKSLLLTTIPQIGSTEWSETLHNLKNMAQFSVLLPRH
Protocol: Ki as shown in Tables 1 and 2 is the initial inhibition constant formed by the enzyme-inhibitor complex, and Ki* is the equilibrium dissociation constant for inhibition that is observed following a period of slow-onset, tight binding inhibition. Ki* is the biologically effective constant.
Enzyme assays were conducted to assess the effectiveness of selected compounds of the invention as inhibitors of MTAP and MTAN.
Enzymes.—The human MTAP protein was cloned into pQE32 expression vector and transformed into E. coli. Induction cultures containing 1 L (25 mg/L) and 50 μg/mL ampicillin were inoculated with 1 mL overnight grown starter-culture and incubated at 37° C. When the cultures reached an OD of ≈0.6 they were induced with 1.5 mM IPTG for 6 to 8 hours. Cells were harvested by centrifugation at 5000 rpm for 30 min, and subsequently resuspended in a buffer (20 mM imidazole, 300 mM NaCl, 0.2 mM phenylmethylsulfonyl fluoride (PMSF), 100 mM Tris, pH 8.0) containing a small amount of lysozyme to weaken the cell membrane. Cells were lysed with a French press. The insoluble material was removed by high-speed centrifugation. The cell extract was further clarified with 35% ammonium sulfate precipitation followed by high-speed centrifugation. The clarified cell extract was then applied to a 5 mL Ni-NTA column that had previously been equilibrated with the binding buffer. Further chromatographic steps were carried out by FPLC. The column was washed with 10 volumes of 50 mM imidazole, 300 mM NaCl, and 100 mM Tris, pH 8.0, and the protein was eluted with a buffer containing a 50–250 mM gradient of imidazole, 300 mM NaCl, 1 M Tris, pH 8.0. The purity of the protein was verified by running polyacrylamide gel followed by Coomassie staining. The protein was subsequently dialyzed in 50 mM NaCl, 2 mM dithiothreitol (DTT) and 50 mM Tris, pH 7.4, and was concentrated to 10 mg/mL. The purified protein was stored at −80° C. in 100 μL to 150 μL aliquots.
Inhibitors.—Inhibitor concentrations were determined by the UV absorbance spectrum using the published millimolar extinction coefficients for 9-dazadenine of 8.5 at 275 nm at pH 7.0.
Assays.—The direct spectrophotometric assay for the conversion of MTA into adenine was measured as the decrease in absorbance at 274 nm. At 274 nm, Δε between MTA and adenine is at a maximum and produces a spectral change of 1.6 absorbance units/cm/mM (DeWolf, W. E. Jr., Fullin, F. A., and Schramm, V. L. (1979) J. Biol. Chem. 254, 10868–10875)
This concentration corresponds to an OD of 0.7–1.1 at 274 nM. The formation of product was monitored as a decrease in absorbance at 274 nm. Conditions for Ki* determination used high concentrations of substrate. Two controls, one having no inhibitor and the other no enzyme were included in the experiment. The Ki values MTAP for the various compounds were calculated by fitting in the ratio of initial rates in the presence of inhibitor to without any inhibitor versus the inhibitor concentration, for the known Km and substrate concentration into the following expression.
Where Vo′ is the rate in the presence of inhibitor • Vo rate in the absence of inhibitor • [I] inhibitor concentration • And [S] is the substrate concentration
And the Ki* was calculated by fitting to the following expression
Where Vs′ is the steady-state rate following attainment of equilibrium in the presence inhibitor, and Vs is the steady-state rate in the control having no inhibitor. Both these equations are valid for competitive type inhibition.

[1] = test system: Lewis lung carcinoma cells; experiment: Radiation sensitizing effect on Lewis lung carcinoma cells; type: cell-based; conditions: 5′-methylthio-ImmA at 2 μM; 10 Gy X-ray; cells counted by Trypan Blue after 48 hrs
Protocol: Lewis lung carcinoma cells (1×10^6) were plated and allowed to adhere overnight in 2 mL of DMEL medium substituted with 10% fetal bovine serum, 1% Pen-Strep, 2.5% Na-Pyruvate, 1% non-essential amino acids in 6 well plates. 50 μM MTA, 50 μM MTA+2 μM 5′-methylthio-ImmA or 2 μM 5′-methylthio-ImmA was then added in 1 mL of the same medium as indicated. Control wells were treated with medium without any additions. This treatment was allowed to continue for 6 hours. In each experiment one set of treated cells were subjected to 10 Gy of X-ray irradiation and a control set received no irridation. Both irradiated and unirradiated cells were then cultured for another 48 hours in the presence of MTA±5′-methylthio-ImmA. Manual counting of living and dead cells was done by Trypan Blue dye exclusion following 48 hrs of growth. (Approximate doubling time for Lewis Lung cells was 24 hours.)

For CSC[C@H]1N[C@@H](c2c[nH]c3c(N)ncnc23)C(O)[C@H]1O (some centres unmarked) [5′-methylthio-ImmA], the Ki (human MTAP; MTA at 150 μM, Km=2.5 μM, read-out: Ki (FIG. 1, inhibition of MTAP at varying concentrations)) was 0.107 nM, the “Ki*” value (human MTAP; MTAP, equilibrium dissociation constant after slow-onset, tight binding inhibition) was “in the pM range” and the Ki (human MTAP; MTAP, equilibrium dissociation constant after slow-onset, tight binding inhibition, read-out: Ki*) was 0.09 ± 0.018 nM. For the same compound, the Ki (human MTAP; MTAP, initial inhibition constant, read-out: Ki) was 5 ± 0.5 nM and the “effect on cell growth and irradiation damage (FIG. 2)” value [1] was “acts in a similar manner to 50 μM MTA”.
